Experimental data published in patent publication US12642270B2, “Substituted thiophene carboxamides, thiophene carboxylic acids and derivatives thereof” (Bayer Aktiengesellschaft, priority 2019, dated 2026).

Test: Log P by HPLC on reversed phase columns (EEC directive 79/831 Annex V.A8)
Format: physicochemical
Details: method [a]
Experimental: In the above tables, measurement of Log P values was performed according to EEC directive 79/831 Annex V.A8 by HPLC (High Performance Liquid Chromatography) on reversed phase columns with the following methods: • ^[a] Log P value is determined by measurement of LC-UV, in an acidic range, with 0.1% formic acid in water and acetonitrile as eluent (linear gradient from 10% acetonitrile to 95% acetonitrile). • ^[b] Log P value is determined by measurement of LC-UV, in a neutral range, with 0.001 molar ammonium acetate solution in water and acetonitrile as eluent (linear gradient from 10% acetonitrile to 95% acetonitrile). • ^[c] Log P value is determined by measurement of LC-UV, in an acidic range, with 0.1% phosphoric acid and acetonitrile as eluent (linear gradient from 10% acetonitrile to 95% acetonitrile). If more than one Log P value is available within the same method, all the values are given and separated by “+”. Calibration was done with straight-chain alkan2-ones (with 3 to 16 carbon atoms) with known Log P values (measurement of Log P values using retention times with linear interpolation between successive alkanones). Lambda-max-values were determined using UV-spectra from 200 nm to 400 nm and the peak values of the chromatographic signals.

SMILES	LogP
CCOC(=O)C(Cc1c[nH]c2ccccc12)NC(=O)c1sc(Br)c(Cl)c1C (stereo not drawn) [1.0132]	4.11^[a]
CCOC(=O)C(C)NC(=O)c1sc(Br)c(Br)c1F (stereo not drawn) [1.0133]	3.41^[a]
COC(=O)C(Cc1c[nH]cn1)NC(=O)c1sc(Br)c(Br)c1F (stereo not drawn) [1.0134]	1.39^[a]
CCOC(=O)C(COC)NC(=O)c1sc(Br)c(Br)c1F (stereo not drawn) [1.0135]	3.46^[a]
CCOC(=O)C(Cc1ccc(O)cc1)NC(=O)c1sc(Br)c(Br)c1F (stereo not drawn) [1.0136]	3.31^[a]
CCOC(=O)C(Cc1c[nH]c2ccccc12)NC(=O)c1sc(Br)c(Br)c1F (stereo not drawn) [1.0137]	4.08^[a]
CCSC(=O)C1(NC(=O)c2sc(Br)c(Br)c2I)CC1 [1.0139]	3.96^[a]
CCOC(=O)CNC(=O)c1sc(Br)c(Br)c1Cl [1.0142]	3.30^[a]
CCOC(=O)CCNC(=O)c1sc(Br)c(Br)c1Cl [1.0143]	3.53^[a]
CCOC(=O)C1(NC(=O)c2sc(Br)c(Br)c2Cl)CCC1 [1.0144]	4.27^[a]
CCOC(=O)C(NC(=O)c1sc(Br)c(Br)c1Cl)C(C)C (stereo not drawn) [1.0145]	4.92^[a]
CCOC(=O)C(CC(C)C)NC(=O)c1sc(Br)c(Br)c1Cl (stereo not drawn) [1.0147]	5.19^[a]
CCOC(=O)C(Cc1ccccc1)NC(=O)c1sc(Br)c(Br)c1Cl (stereo not drawn) [1.0149]	5.00^[a]
COC(=O)C1(NC(=S)c2sc(Br)c(Br)c2I)CC1 [1.0150]	3.99^[a]
CCOC(=O)[C@@H](NC(=O)c1sc(Br)c(Br)c1F)C(C)C [1.0151]	4.47^[a]
CCOC(=O)[C@H](NC(=O)c1sc(Br)c(Br)c1F)C(C)C [1.0152]	4.47^[a]
CCOC(=O)[C@@H](Cc1ccccc1)NC(=O)c1sc(Br)c(Br)c1F [1.0153]	4.55^[a]
CCOC(=O)[C@H](Cc1ccccc1)NC(=O)c1sc(Br)c(Br)c1F [1.0154]	4.55^[a]
COC(=O)[C@H](Cc1ccccc1)NC(=O)c1sc(Br)c(Br)c1F [1.0155]	4.12^[a]

SMILES	LogP
CCOC(=O)[C@@H](CC(C)C)NC(=O)c1sc(Br)c(Br)c1F [1.0156]	4.78^[a]
COC(=O)C1(NC(=O)c2cc(Cl)c(Br)s2)CC1 [1.0162]	2.48^[a]
COC(=O)C1(NC(=O)c2sc(Br)c(Cl)c2C)CC1 [1.0163]	2.76^[a]
COC(=O)C1(NC(=O)c2cc(Br)c(Cl)s2)CC1 [1.0164]	2.51^[a]
CCOC(=O)C1(NC(=O)c2sc(Br)c(Br)c2F)CCC1 [1.0166]	3.78^[a]
CCOC(=O)CN(C)C(=O)c1sc(Br)c(Br)c1F [1.0167]	3.09^[a]
Cc1c(C(=O)NC2(C(=O)O)CC2)sc(Br)c1Cl [1.0168]	2.20^[a]
O=C(NC1(C(=O)O)CC1)c1cc(Br)c(Cl)s1 [1.0169]	2.02^[a]
CCOC(=O)C(C(C)C)N(C)C(=O)c1sc(Br)c(Br)c1F (stereo not drawn) [1.0171]	4.39^[a]
O=C(NC1(C(=O)O)CCC1)c1sc(Br)c(Br)c1F [1.0172]	2.62^[a]
O=C(O)C1(NC(=S)c2sc(Br)c(Br)c2I)CC1 [1.0173]	3.09^[a]
NC(=O)C1(NC(=O)c2sc(Br)c(Br)c2F)CC1 [1.0174]	1.94^[a]
CCOC(=O)C(NC(=O)c1sc(Br)c(Br)c1F)c1ccccc1 (stereo not drawn) [1.0175]	4.47^[a]
N#CCNC(=O)c1sc(Cl)c(Br)c1Cl [1.0176]	2.70^[a]
COC(=O)CNC(=O)c1sc(Cl)c(Br)c1Cl [1.0177]	2.85^[a]
CCOC(=O)CNC(=O)c1sc(Cl)c(Br)c1Cl [1.0178]	3.37^[a]
CCOC(=O)C1(NC(=O)c2sc(Cl)c(Br)c2Cl)CC1 [1.0180]	3.47^[a]
CCOC(=O)C1(NC(=O)c2sc(Cl)c(Br)c2Cl)CCC1 [1.0182]	4.33^[a]

Results, then the molecule that gave them:

LogP	SMILES
3.42^[a]	CCOC(=O)C(COC)NC(=O)c1sc(Br)c(Cl)c1C (stereo not drawn) [1.0138]
3.35^[a]	CCOC(=O)C(C)NC(=O)c1sc(Br)c(Cl)c1C (stereo not drawn) [1.0140]
3.62^[a]	COC(=O)C(CC(F)F)NC(=O)c1sc(Br)c(Br)c1Cl (stereo not drawn) [1.0146]
4.46^[a]	CCOC(=O)C(CCSC)NC(=O)c1sc(Br)c(Br)c1Cl (stereo not drawn) [1.0148]
3.62^[a]	COC(=O)[C@@H](CCSC)NC(=O)c1sc(Br)c(Br)c1F [1.0158]
3.62^[a]	COC(=O)[C@H](CCSC)NC(=O)c1sc(Br)c(Br)c1F [1.0159]
1.94^[a]	COC(=O)[C@H](CC(N)=O)NC(=O)c1sc(Br)c(Br)c1F [1.0160]
1.98^[a]	COC(=O)[C@@H](CC(N)=O)NC(=O)c1sc(Br)c(Br)c1F [1.0161]
2.80^[a]	COC(=O)C1(NC(=O)c2sc(Cl)c(Br)c2C)CC1 [1.0165]
2.21^[a]	Cc1c(C(=O)NC2(C(=O)O)CC2)sc(Cl)c1Br [1.0170]
3.54^[a]	CCOC(=O)CCNC(=O)c1sc(Cl)c(Br)c1Cl [1.0179]
3.91^[a]	COC(=O)C(NC(=O)c1sc(Cl)c(Br)c1Cl)C1CC1 (stereo not drawn) [1.0181]
4.97^[a]	CCOC(=O)C(NC(=O)c1sc(Cl)c(Br)c1Cl)C(C)C (stereo not drawn) [1.0183]
3.64^[a]	COC(=O)C(CC(F)F)NC(=O)c1sc(Cl)c(Br)c1Cl (stereo not drawn) [1.0184]
5.20^[a]	CCOC(=O)C(CC(C)C)NC(=O)c1sc(Cl)c(Br)c1Cl (stereo not drawn) [1.0185]

Same assay, conditions: method [a]; compounds of formula (I), Table 1.1

SMILES	LogP
CCOC(=O)C1(NC(=O)c2sc(Br)c(I)c2C)CCC1 [1.0090]	3.77^[a]
CCOC(=O)C(NC(=O)c1sc(Br)c(I)c1C)C(C)C (stereo not drawn) [1.0091]	4.37^[a]
CCOC(=O)C(CC(C)C)NC(=O)c1sc(Br)c(I)c1C (stereo not drawn) [1.0093]	4.66^[a]
CCOC(=O)C(Cc1ccccc1)NC(=O)c1sc(Br)c(I)c1C (stereo not drawn) [1.0095]	4.53^[a]
CCOC(=O)CNC(=O)c1sc(I)c(Br)c1C [1.0096]	3.02^[a]
CCOC(=O)CCNC(=O)c1sc(I)c(Br)c1C [1.0097]	3.17^[a]
CCOC(=O)C1(NC(=O)c2sc(I)c(Br)c2C)CC1 [1.0098]	3.19^[a]
CCOC(=O)C1(NC(=O)c2sc(I)c(Br)c2C)CCC1 [1.0099]	3.71^[a]
CCOC(=O)C(NC(=O)c1sc(I)c(Br)c1C)C(C)C (stereo not drawn) [1.0100]	4.30^[a]
CCOC(=O)C(Cc1ccccc1)NC(=O)c1sc(I)c(Br)c1C (stereo not drawn) [1.0104]	4.46^[a]
Cc1c(C(=O)NC2(C#N)CC2)sc(Cl)c1Br [1.0106]	2.78^[a]
Cc1c(C(=O)NC2(C#N)CCC2)sc(Cl)c1Br [1.0107]	4.53^[a]
Cc1c(C(=O)NC(C#N)C(C)C)sc(Cl)c1Br (stereo not drawn) [1.0108]	3.63^[a]
Cc1c(C(=O)NC(C#N)c2ccccc2)sc(Cl)c1Br (stereo not drawn) [1.0109]	3.85^[a]
Cc1c(C(=O)NC(C#N)Cc2ccccc2)sc(Cl)c1Br (stereo not drawn) [1.0110]	3.99^[a]
Cc1c(C(=O)NCC#N)sc(Br)c1Cl [1.0111]	2.54^[a]
Cc1c(C(=O)NC2(C#N)CC2)sc(Br)c1Cl [1.0112]	2.75^[a]
Cc1c(C(=O)NC(C#N)c2ccccc2)sc(Br)c1Cl (stereo not drawn) [1.0113]	3.81^[a]
Cc1c(C(=O)NC(C#N)Cc2ccccc2)sc(Br)c1Cl (stereo not drawn) [1.0114]	3.92^[a]
N#CC1(NC(=O)c2sc(Br)c(Br)c2F)CC1 [1.0115]	2.64^[a]
N#CC1(NC(=O)c2sc(Br)c(Br)c2F)CCC1 [1.0116]	3.11^[a]
N#CC(NC(=O)c1sc(Br)c(Br)c1F)c1ccccc1 (stereo not drawn) [1.0117]	3.65^[a]
N#CC(Cc1ccccc1)NC(=O)c1sc(Br)c(Br)c1F (stereo not drawn) [1.0118]	3.81^[a]
COC(=O)C(NC(=O)c1sc(Br)c(Br)c1F)C1CC1 (stereo not drawn) [1.0121]	3.43^[a]

Continued, values first:

LogP	SMILES
3.39^[a]	COC(=O)C(CC(F)F)NC(=O)c1sc(Br)c(I)c1C (stereo not drawn) [1.0092]
4.03^[a]	CCOC(=O)C(CCSC)NC(=O)c1sc(Br)c(I)c1C (stereo not drawn) [1.0094]
3.33^[a]	COC(=O)C(CC(F)F)NC(=O)c1sc(I)c(Br)c1C (stereo not drawn) [1.0101]
4.56^[a]	CCOC(=O)C(CC(C)C)NC(=O)c1sc(I)c(Br)c1C (stereo not drawn) [1.0102]
3.96^[a]	CCOC(=O)C(CCSC)NC(=O)c1sc(I)c(Br)c1C (stereo not drawn) [1.0103]
2.58^[a]	Cc1c(C(=O)NCC#N)sc(Cl)c1Br [1.0105]
3.39^[a]	COC(=O)C(NC(=O)c1sc(Cl)c(Br)c1C)C1CC1 (stereo not drawn) [1.0119]
3.35^[a]	COC(=O)C(NC(=O)c1sc(Br)c(Cl)c1C)C1CC1 (stereo not drawn) [1.0120]
3.37^[a]	CCOC(=O)C(C)NC(=O)c1sc(Cl)c(Br)c1C (stereo not drawn) [1.0122]
1.48^[a]	COC(=O)C(Cc1c[nH]cn1)NC(=O)c1sc(Cl)c(Br)c1C (stereo not drawn) [1.0124]
3.44^[a]	CCOC(=O)C(COC)NC(=O)c1sc(Cl)c(Br)c1C (stereo not drawn) [1.0125]
3.33^[a]	CCOC(=O)C(Cc1ccc(O)cc1)NC(=O)c1sc(Cl)c(Br)c1C (stereo not drawn) [1.0126]
1,66^[a]	COC(=O)[C@H](CCCNC(=N)N)NC(=O)c1sc(Cl)c(Br)c1C [1.0127]
4.15^[a]	CCOC(=O)C(Cc1c[nH]c2ccccc12)NC(=O)c1sc(Cl)c(Br)c1C (stereo not drawn) [1.0128]
1.47^[a]	COC(=O)C(Cc1c[nH]cn1)NC(=O)c1sc(Br)c(Cl)c1C (stereo not drawn) [1.0129]
3.29^[a]	CCOC(=O)C(Cc1ccc(O)cc1)NC(=O)c1sc(Br)c(Cl)c1C (stereo not drawn) [1.0130]
1.71^[a]	COC(=O)[C@H](CCCNC(=N)N)NC(=O)c1sc(Br)c(Cl)c1C [1.0131]
